This assay concerns the target T1, Human M4 (Homo sapiens, UniProt P08173).
T1 construct: expressed in transfected cells
T1 sequence (P08173 1-479): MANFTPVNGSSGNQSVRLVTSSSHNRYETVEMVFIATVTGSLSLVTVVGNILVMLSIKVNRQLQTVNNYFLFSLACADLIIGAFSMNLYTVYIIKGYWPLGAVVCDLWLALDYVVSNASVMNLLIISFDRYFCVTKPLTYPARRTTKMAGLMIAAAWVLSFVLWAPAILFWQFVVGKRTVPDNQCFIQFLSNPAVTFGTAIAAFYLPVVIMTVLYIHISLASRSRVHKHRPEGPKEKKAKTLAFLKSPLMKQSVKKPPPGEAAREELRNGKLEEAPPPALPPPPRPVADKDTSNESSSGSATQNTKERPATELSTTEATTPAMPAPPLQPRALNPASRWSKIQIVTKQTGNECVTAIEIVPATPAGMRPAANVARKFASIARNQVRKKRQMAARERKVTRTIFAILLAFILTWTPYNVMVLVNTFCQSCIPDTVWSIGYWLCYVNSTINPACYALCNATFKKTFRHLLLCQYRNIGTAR
Put plainly: mAChR M4 cell-based functional assay (calcium flux, potentiation of EC20 acetylcholine response). The note with it: for Emax / Emax at 30 µM: % ACh maximum at 30 μM, human M4; for EC50: CHO-K1 cells with human M4 and Gqi5, increase in EC20 acetylcholine response.

Protocol: Human M4 cDNA, along with the chimeric G protein Gqi5, were transfected into Chinese hamster ovary (CHO-K1) cells purchased from the American Type Culture Collection using commercially available Lipofectamine 2000 transfection reagent (Dalby, B. et al., Methods (2004) 33(2), 95-103). hM4-Gqi5 cells were grown in Ham's F-12 medium containing 10% heat-inactivated fetal bovine serum (FBS), 20 mM HEPES, 50 μg/mL G418 sulfate (CAS #108321-42-2), and 500 μg/mL Hygromycin B. rM4-Gqi5 cells were grown in DMEM containing 10% heat-inactivated FBS, 20 mM HEPES, 400 μg/mL G418 sulfate, and 500 μg/mL Hygromycin B.
For high throughput measurement of agonist-evoked increases in intracellular calcium, CHO-K1 cells stably expressing muscarinic receptors were plated in growth medium lacking G418 sulfate and hygromycin at 15,000 cells/20 μL/well in Greiner 384-well black-walled, tissue culture (TC)-treated, clear-bottom plates (VWR). Cells were incubated overnight at 37° C. and 5% CO2. The next day, cells were washed using an ELX 405 (BioTek) with assay buffer; the final volume was then aspirated to 20 μL. […] Dye was removed by washing with the ELX 405 and the final volume was aspirated to 20 μL. Compound master plates were formatted in an 11 point concentration-response curve (CRC) format (1:3 dilutions) in 100% DMSO with a starting concentration of 10 mM using a BRAVO liquid handler (Agilent). Test compound CRCs were then transferred to daughter plates (240 nL) using the Echo acoustic plate reformatter (Labcyte, Sunnyvale, Calif.) and then diluted into assay buffer (40 μL) to a 2× stock using a Thermo Fisher Combi (Thermo Fisher Scientific, Waltham, Mass.).
Calcium flux was measured using the Functional Drug Screening System (FDSS) 6000 or 7000 (Hamamatsu Corporation, Tokyo, Japan) as an increase in the fluorescent static ratio. Compounds were applied to cells (20 μL, 2×) using the automated system of the FDSS at 2-4 seconds into the protocol and the data were collected at 1 Hz. At 144 seconds, 10 μL of an EC20 concentration of the muscarinic receptor agonist acetylcholine was added (5×), followed by the addition of 12 μL of an EC80 concentration of acetylcholine at the 230 second time point (5×). Agonist activity was analyzed as a concentration-dependent increase in calcium mobilization upon compound addition. Positive allosteric modulator activity was analyzed as a concentration-dependent increase in the EC20 acetylcholine response. […] Antagonist activity was analyzed as a concentration-dependent decrease in the EC80 acetylcholine response. Concentration-response curves were generated using a four-parameter logistical equation in XLFit curve fitting software (IDBS, Bridgewater, N.J.) for Excel (Microsoft, Redmond, Wash.) or Prism (GraphPad Software, Inc., San Diego, Calif.).

As for “5-chloro-2,4-dimethyl-8-pyrrolidin-1-yl-pyrido[4,5]thieno[1,2-b]pyrimidine [Compound 45]”, the Emax was found to be 60.9% and the EC50 came to 693 nM.
On the same counts, the results for “5-chloro-N-[(3-fluoro-4-methoxy-phenyl)methyl]-2,4-dimethyl-pyrido[4,5]thieno[1,2-b]pyrimidin-8-amine [Compound 42]” are 60.5% and 723 nM.
With `Cc1nc(C)c2c(n1)sc1c(N3CCCC3)ncnc12` [Compound 2, 7,9-dimethyl-4-(pyrrolidin-1-yl)thieno[2,3-d:4,5-d′]dipyrimidine], the Emax at 30 µM was determined as 51.7% and the EC50 worked out at 288 nM.
The matching figures for `COc1ccc(CNc2ncnc3c2sc2nc(C)nc(C)c23)cc1F` [Compound 3, N-(3-fluoro-4-methoxybenzyl)-7,9-dimethylthieno[2,3-d:4,5-d′]dipyrimidin-4-amine]: 64.8% and 1160 nM.
`Cc1nc(C)c2c(n1)sc1c(NC3CCCC3)ncnc12` [Compound 4, N-cyclopentyl-7,9-dimethylthieno[2,3-d:4,5-d′]dipyrimidin-4-amine]: the maximum response (Emax) at 30 µM worked out at 55.5% and the concentration giving a half-maximal response (EC50) stood at 557 nM.
On the same counts, the results for `[2H]C([2H])(Nc1ncnc2c1sc1nc(C)nc(C)c12)c1ccc(C(C)(C)O)cc1` [Compound 5, 2-(4-(((7,9-dimethylthieno[2,3-d:4,5-d′]dipyrimidin-4-yl)amino)methyl-d2)phenyl)propan-2-ol] are 79.3% and 1370 nM.
The matching figures for `Cc1nc(C)c2c(n1)sc1c(NCc3ccc(C4(O)CCC4)cc3)ncnc12` [Compound 6, 1-(4-(((7,9-dimethylthieno[2,3-d:4,5-d′]dipyrimidin-4-yl)amino)methyl)phenyl)cyclobutan-1-ol]: 81.3% and 2020 nM.
Turning to `Cc1nc(C)c2c(n1)sc1c(NCc3ccc(C(C)(O)C4CC4)cc3)ncnc12` (centres unmarked) [Compound 7, 1-cyclopropyl-1-(4-(((7,9-dimethylthieno[2,3-d:4,5-d′]dipyrimidin-4-yl)amino)methyl)phenyl)ethan-1-ol], the Emax at 30 µM was 71.2% and the EC50 was 2090 nM.
For the molecule `Cc1nc(C)c2c(n1)sc1c(N3CC4CC4C3)ncnc12` (centres unmarked) [Compound 8, 4-(3-azabicyclo[3.1.0]hexan-3-yl)-7,9-dimethylthieno[2,3-d:4,5-d′]dipyrimidine], the maximal response (Emax) at 30 µM came out at 75.5% and the EC50 was 156 nM.
On to `Cc1nc(C)c2c(n1)sc1c(N3CCOCC3)ncnc12` [Compound 9, 4-(7,9-dimethylthieno[2,3-d:4,5-d′]dipyrimidin-4-yl)morpholine], for which the maximal response (Emax) at 30 µM was 39.1% and the EC50 is 5570 nM.
On the same counts, the results for `Cc1nc(C)c2c(n1)sc1c(N3CC4(COC4)C3)ncnc12` [Compound 10, 6-(7,9-dimethylthieno[2,3-d:4,5-d′]dipyrimidin-4-yl)-2-oxa-6-azaspiro[3.3]heptane] are 76% and 1580 nM.
Regarding `Cc1nc(C)c2c(n1)sc1c(N3CCCC3)nccc12` [Compound 11, 2,4-Dimethyl-8-(pyrrolidin-1-yl)pyrido[4′,3′:4,5]thieno[2,3-d]pyrimidine], the maximal effect (Emax) at 30 µM turned out to be 77% and the concentration giving a half-maximal response (EC50) was found to be 73 nM.
In the case of `Cc1nc(C)c2c(n1)sc1c(N3CCCCC3)nccc12` [Compound 12, 2,4-dimethyl-8-(1-piperidyl)pyrido[4′,3′:4,5]thieno[2,3-d]pyrimidine], the maximal effect (Emax) at 30 µM came out at 57.9% and the EC50 was 73 nM.
On the same counts, the results for `COc1ccc(CNc2nccc3c2sc2nc(C)nc(C)c23)cc1F` [Compound 13, N-(3-fluoro-4-methoxybenzyl)-2,4-dimethylpyrido[4′,3′:4,5]thieno[2,3-d]pyrimidin-8-amine] are 84.4% and 169 nM.
With `Cc1nc(C)c2c(n1)sc1c(NCc3ccc(C(C)(C)O)cc3)nccc12` [Compound 14, 2-(4-(((2,4-dimethylpyrido[4′,3′:4,5]thieno[2,3-d]pyrimidin-8-yl)amino)methyl)phenyl)propan-2-ol], the Emax at 30 µM was 80.5%.
Take `Cc1nc(C)c2c(n1)sc1c(NC3CCCC3)nccc12` [Compound 15, N-cyclopentyl-2,4-dimethylpyrido[4′,3′:4,5]thieno[2,3-d]pyrimidin-8-amine]: the Emax at 30 µM came out at 73.3% and the EC50 came out at 134 nM.
The matching figures for `Cc1nc(C)c2c(n1)sc1c(N3CCC3)ncnc12` [Compound 16, 4-(azetidin-1-yl)-7,9-dimethylthieno[2,3-d:4,5-d′]dipyrimidine]: 59.9% and 1440 nM.
For the molecule `Cc1nc(C)c2c(n1)sc1c(N3CC4(C3)CC(F)(F)C4)ncnc12` [Compound 17, 4-(6,6-difluoro-2-azaspiro[3.3]heptan-2-yl)-7,9-dimethylthieno[2,3-d:4,5-d′]dipyrimidine], the Emax at 30 µM is 42.9% and the EC50 amounted to 185 nM.
On the same counts, the results for `Cc1nc(C)c2c(n1)sc1c(N3CCC(F)(F)C3)ncnc12` [Compound 18, 4-(3,3-difluoropyrrolidin-1-yl)-7,9-dimethylthieno[2,3-d:4,5-d′]dipyrimidine] are 76.9% and 635 nM.
On the same counts, the results for `Cc1nc(C)c2c(n1)sc1c(N3CC[C@H](F)C3)ncnc12` [Compound 19, (S)-4-(3-fluoropyrrolidin-1-yl)-7,9-dimethylthieno[2,3-d:4,5-d′]dipyrimidine] are 62.4% and 1060 nM.
For the molecule `Cc1nc(C)c2c(n1)sc1c(N3CC[C@@H](F)C3)ncnc12` [Compound 20, (R)-4-(3-fluoropyrrolidin-1-yl)-7,9-dimethylthieno[2,3-d:4,5-d′]dipyrimidine], the maximal response (Emax) at 30 µM came to 71.5% and the EC50 was determined as 791 nM.
With `Cc1nc(C)c2c(n1)sc1c(N3CCC(F)(F)CC3)ncnc12` [Compound 21, 4-(4,4-difluoropiperidin-1-yl)-7,9-dimethylthieno[2,3-d:4,5-d′]dipyrimidine], the maximal response (Emax) at 30 µM amounted to 52.6% and the EC50 was found to be 1410 nM.
Take `Cc1nc(C)c2c(n1)sc1c(NCc3ccc(C(C)(C)O)cc3F)nccc12` [Compound 22, 2-[4-[[(2,4-dimethylpyrido[4,5]thieno[1,2-b]pyrimidin-8-yl)amino]methyl]-3-fluoro-phenyl]propan-2-ol]: the maximum response (Emax) at 30 µM came to 88.7% and the 50% effective concentration (EC50) stood at 840 nM.
The matching figures for `CCN(CC)C(=O)c1ccc(CNc2nccc3c2sc2nc(C)nc(C)c23)cc1` [Compound 23, 4-[[(2,4-dimethylpyrido[4,5]thieno[1,2-b]pyrimidin-8-yl)amino]methyl]-N,N-diethyl-benzamide]: 78.8% and 4240 nM.
On the same counts, the results for `CCN(CC)c1nccc2c1sc1nc(C)nc(C)c12` [Compound 24, N,N-diethyl-2,4-dimethyl-pyrido[4,5]thieno[1,2-b]pyrimidin-8-amine] are 37.7% and over 10000 nM.
On the same counts, the results for `Cc1nc(C)c2c(n1)sc1c(N3CCC(F)(F)C3)nccc12` [Compound 25, 8-(3,3-difluoropyrrolidin-1-yl)-2,4-dimethyl-pyrido[4,5]thieno[1,2-b]pyrimidine] are 94.6% and 42 nM.
For `Cc1nc(C)c2c(n1)sc1c(NC3CCC3)nccc12` [Compound 26, N-cyclobutyl-2,4-dimethyl-pyrido[4,5]thieno[1,2-b]pyrimidin-8-amine], the Emax at 30 µM was found to be 94.8% and the half-maximal effective concentration (EC50) was 300 nM.
On the same counts, the results for `Cc1nc(C2CC2)nc2sc3c(NCc4ccc(C(C)(C)O)c(F)c4)nccc3c12` [Compound 27, 2-[4-[[(2-cyclopropyl-4-methyl-pyrido[4,5]thieno[1,2-d]pyrimidin-8-yl)amino]methyl]-2-fluoro-phenyl]propan-2-ol] are 86.4% and 2270 nM.
The matching figures for `Cc1nc(C2CC2)nc2sc3c(NCc4ccc(C(C)(C)O)cc4)nccc3c12` [Compound 28, 2-[4-[[(2-cyclopropyl-4-methyl-pyrido[4,5]thieno[1,2-d]pyrimidin-8-yl)amino]methyl]phenyl]propan-2-ol]: 97% and 1390 nM.
The matching figures for `Cc1nc(C2CC2)nc2sc3c(NCc4ccc(F)c(F)c4)nccc3c12` [Compound 29, 2-cyclopropyl-N-[(3,4-difluorophenyl)methyl]-4-methyl-pyrido[4,5]thieno[1,2-d]pyrimidin-8-amine]: 62.4% and 6690 nM.
`Cc1nc(C2CC2)nc2sc3c(N4CCOCC4)nccc3c12` [Compound 30, 4-(2-cyclopropyl-4-methyl-pyrido[4,5]thieno[1,2-d]pyrimidin-8-yl)morpholine]: the Emax at 30 µM was determined as 74.2% and the half-maximal effective concentration (EC50) came to 449 nM.
The matching figures for `Cc1nc(C)c2c(n1)sc1c(NCc3ccc(C(C)(C)O)c(F)c3)nccc12` [Compound 31, 2-[4-[[(2,4-dimethylpyrido[4,5]thieno[1,2-b]pyrimidin-8-yl)amino]methyl]-2-fluoro-phenyl]propan-2-ol]: 85.8% and 237 nM.
The matching figures for `Cc1nc(C2CC2)nc2sc3c(NC4CC4)nccc3c12` [Compound 32, N,2-dicyclopropyl-4-methyl-pyrido[4,5]thieno[1,2-d]pyrimidin-8-amine]: 103% and 129 nM.
